Consider 2 molecules from ChEMBL document CHEMBL3861941, “Discovery of 4,6-disubstituted pyrimidines as potent inhibitors of the heat shock factor 1 (HSF1) stress pathway and CDK9” (Medchemcomm, 2016).

Assay [1] deals with Cyclin-dependent kinase 2/cyclin E1 (Homo sapiens, UniProt P24941). The assay is described as follows: Inhibition of recombinant full-length human C-terminal His6-tagged CDK2/recombinant full-length human N-terminal GST-tagged cyclin E using fluorescein-QSPKKG-CONH2 as substrate after 60 mins by off-chip mobility shift assay. The class given is protein-complex assay.
Assay [2] in a line: Cytotoxicity against human U2OS cells assessed as growth inhibition after 96 hrs by SRB assay. The assay is classed as functional, cell-based.
Another assay has as its target CDK9/cyclin T1 (Homo sapiens, UniProt P50750).

Chain of CDK9/cyclin T1 (O60563 whole entry): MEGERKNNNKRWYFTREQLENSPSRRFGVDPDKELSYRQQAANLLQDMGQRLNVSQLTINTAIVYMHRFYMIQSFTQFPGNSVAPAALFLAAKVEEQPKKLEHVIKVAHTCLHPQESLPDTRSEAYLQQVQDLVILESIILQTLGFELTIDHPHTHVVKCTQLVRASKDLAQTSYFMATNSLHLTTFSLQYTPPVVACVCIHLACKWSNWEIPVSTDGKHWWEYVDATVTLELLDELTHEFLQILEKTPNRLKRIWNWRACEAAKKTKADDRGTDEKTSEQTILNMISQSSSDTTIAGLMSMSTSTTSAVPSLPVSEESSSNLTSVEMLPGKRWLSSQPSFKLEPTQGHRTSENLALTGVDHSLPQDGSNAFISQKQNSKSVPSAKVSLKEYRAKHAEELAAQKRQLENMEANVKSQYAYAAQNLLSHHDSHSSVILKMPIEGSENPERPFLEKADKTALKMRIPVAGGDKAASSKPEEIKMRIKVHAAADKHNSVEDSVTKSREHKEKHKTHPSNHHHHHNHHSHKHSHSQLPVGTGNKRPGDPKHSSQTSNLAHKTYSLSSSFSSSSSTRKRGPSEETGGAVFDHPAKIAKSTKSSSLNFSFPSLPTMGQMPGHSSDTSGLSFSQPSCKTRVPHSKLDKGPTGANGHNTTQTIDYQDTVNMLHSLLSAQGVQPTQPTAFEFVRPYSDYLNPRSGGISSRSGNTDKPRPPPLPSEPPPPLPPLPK
Chain of CDK9/cyclin T1 (P50750 whole entry): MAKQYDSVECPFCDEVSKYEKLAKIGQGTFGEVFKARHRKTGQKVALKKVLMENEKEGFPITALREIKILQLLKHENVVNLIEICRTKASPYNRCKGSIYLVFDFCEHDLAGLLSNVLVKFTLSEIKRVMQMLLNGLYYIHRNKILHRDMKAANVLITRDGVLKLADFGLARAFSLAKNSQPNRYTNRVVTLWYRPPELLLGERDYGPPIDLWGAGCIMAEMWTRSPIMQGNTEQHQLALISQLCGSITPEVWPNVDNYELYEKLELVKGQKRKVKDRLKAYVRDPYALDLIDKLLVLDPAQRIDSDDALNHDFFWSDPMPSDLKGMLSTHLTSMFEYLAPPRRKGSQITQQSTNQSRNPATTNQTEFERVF

For the molecule `Cc1c(Nc2ccc(OCCN(C)C)cn2)ncnc1-n1cnc2ccccc21`, the IC50 in assay [1] was determined as 65800 nM.
With `c1cnc2ncn(-c3cc(Nc4ccc(OCCN5CCCCC5)cn4)ncn3)c2c1`, the IC50 in assay [2] is 5 nM; against CDK9/cyclin T1 it was 3 nM.
